Among the data in patent US20190367516A1 (Bayer Pharma Aktiengesellschaft, priority 2015, published 2019) are EC50, Efficiency and Emax values, retold here.

Structures are written as SMILES.

For the experiment, the target named is T1, human M2 receptor (Homo sapiens, UniProt P08172).
T1 sequence (P08172 1-466): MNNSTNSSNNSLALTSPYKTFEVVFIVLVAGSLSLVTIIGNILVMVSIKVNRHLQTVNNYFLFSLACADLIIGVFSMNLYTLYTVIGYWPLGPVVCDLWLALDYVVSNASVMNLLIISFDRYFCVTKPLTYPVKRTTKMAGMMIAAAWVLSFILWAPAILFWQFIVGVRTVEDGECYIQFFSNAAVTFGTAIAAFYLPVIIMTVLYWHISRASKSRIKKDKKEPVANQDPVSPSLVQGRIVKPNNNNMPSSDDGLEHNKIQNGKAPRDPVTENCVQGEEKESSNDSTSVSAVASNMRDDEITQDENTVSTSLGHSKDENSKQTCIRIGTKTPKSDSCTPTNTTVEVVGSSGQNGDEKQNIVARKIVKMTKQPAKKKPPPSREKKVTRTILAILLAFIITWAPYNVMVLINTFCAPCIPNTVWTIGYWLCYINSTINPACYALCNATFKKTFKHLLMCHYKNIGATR
The note with it: M2-GIRK1/4 reporter cells; for EC50: Receptor activity EC50, allosteric potency at EC20 acetylcholine, in some cases mean of two or more determinations; for Efficiency: boosting of the acetylcholine effect at EC20 acetylcholine concentration; for Emax: read-out: Efficiency, boosting of the acetylcholine effect at EC20 acetylcholine concentration.

One may read the EC50 as the concentration that produces a half-maximal response. High values mean a less potent agent, low ones a more potent agent. Consider `CC[C@@H](NC(=O)c1cn(-c2ccc(F)cc2F)c2nc(N3C(=O)CCC3C)ccc2c1=O)C(F)(F)F` (single isomer, unassigned) [Example 428], for which the EC50 came to 72 nM and the Efficiency was 86.0%.
Turning to `CC[C@@H](NC(=O)c1cn(-c2ccc(F)cc2F)c2nc(N3CC(C)NC3=O)ccc2c1=O)C(F)(F)F` (single isomer, unassigned) [Example 433], the EC50 is 170 nM and the Efficiency is on record as 100.0%.
In turn, `O=C(NC(CC(F)(F)F)C1CC1)c1cn(-c2c(F)cc(F)cc2F)c2nc(N3C[C@@H](O)[C@H](O)C3)ccc2c1=O` (single isomer, unassigned) [Example 440] showed an EC50 of 23 nM and an Efficiency of 98.5%.
On to `CC(NC(=O)c1cn(-c2c(F)cc(F)cc2F)c2nc(N3C[C@@H](O)[C@H](O)C3)ccc2c1=O)(C1CC1)C(F)(F)F` (single isomer, unassigned) [Example 442], for which the response was half-maximal at 10 nM (EC50) and the Emax is 100%.
As for `CCC1CCN(c2ccc3c(=O)c(C(=O)N[C@@H](C4CC4)C(F)(F)F)cn(-c4c(F)cc(F)cc4F)c3n2)C(=O)N1` (single isomer, unassigned) [Example 447, N-[(1 S)-1-Cyclopropyl-2,2,2-trifluoroethyl]-7-[4-ethyl-2-oxotetrahydropyrimidin-1(2H)-yl]-4-oxo-1-(2,4,6-trifluorophenyl)-1,4-dihydro-1,8-naphthyridine-3-carboxamide], it took 24 nM to reach a half-maximal effect (EC50) and the Emax was 93%.
On the same counts, the results for `CC(NC(=O)c1cn(-c2c(F)cc(F)cc2F)c2nc(N3C[C@@H](C)NC3=O)ccc2c1=O)C(F)(F)C(F)(F)F` (single isomer, unassigned) [Example 459] are 4 nM and 95%.
Take `CC(NC(=O)c1cn(-c2c(F)cc(F)cc2F)c2nc(N3C[C@@H](C)NC3=O)ccc2c1=O)C(F)(F)C(F)(F)F` (single isomer, unassigned) [Example 460]: the concentration for a half-maximal effect (EC50) was found to be 5 nM and the Efficiency amounted to 98.0%.
For `O=C(N[C@@H](C1CC1)C(F)(F)F)c1cn(-c2c(F)cc(F)cc2F)c2nc(N3CCOC(CO)C3)ccc2c1=O` (single isomer, unassigned) [Example 464, N-[(1 S)-1-Cyclopropyl-2,2,2-trifluoroethyl]-7-[2-(hydroxymethyl)morpholin-4-yl]-4-oxo-1-(2,4,6-trifluorophenyl)-1,4-dihydro-1,8-naphthyridine-3-carboxamide], the EC50 came out at 128 nM and the Emax is 82.5%.
In turn, `O=C(N[C@@H](C1CC1)C(F)(F)F)c1cn(-c2c(F)cc(F)cc2F)c2nc(N3CCOC(CO)C3)ccc2c1=O` (single isomer, unassigned) [Example 465, N-[(1 S)-1-Cyclopropyl-2,2,2-trifluoroethyl]-7-[2-(hydroxymethyl)morpholin-4-yl]-4-oxo-1-(2,4,6-trifluorophenyl)-1,4-dihydro-1,8-naphthyridine-3-carboxamide] yielded an EC50 of 76 nM and an Efficiency of 89.0%.
`CCC(NC(=O)c1cn(-c2c(F)cc(F)cc2F)c2nc(N3C[C@@H](O)CC3=O)ccc2c1=O)C(C)C` (single isomer, unassigned) [Example 485]: it took 6 nM to reach a half-maximal effect (EC50) and the Emax is 100%.
`CCC(NC(=O)c1cn(-c2c(F)cc(F)cc2F)c2nc(N3C[C@@H](O)CC3=O)ccc2c1=O)C(C)C` (single isomer, unassigned) [Example 486] registered an EC50 of 4 nM and an Efficiency of 100.0%.
With `CC(NC(=O)c1cn(-c2c(F)cc(F)cc2F)c2nc(N3C[C@@H](O)CC3=O)ccc2c1=O)(C1CC1)C(F)(F)F` (single isomer, unassigned) [Example 509], the concentration giving a half-maximal response (EC50) turned out to be 7 nM and the Emax stood at 88%.
As for `O=C(NC(CC(F)(F)F)C1CC1)c1cn(-c2c(F)cc(F)cc2F)c2nc(N3C[C@@H](O)CC3=O)ccc2c1=O` (single isomer, unassigned) [Example 513], a half-maximal response (EC50) required 10 nM and the Emax was determined as 91%.
